The values that follow are results of earlier work, collected in patent publication US20050220774A1, “Methods of inducing differentiation in ex vivo expanded stem cells” (priority 2002, published 2005).

The test system of one data set is stem cells. Conditions: PCT/IL03/00064.

Regarding `NCCNCCNCCNCCN` [TEPA, tetraethylenepentamine], the “clonability of long-term cultures” value in the data set on CD34+ cells (long-term cultures (3-5 weeks)) is recorded as “more efficient clonability”. The “cell clonability and percentage of CD34+ cells” value in the data set on CD34+ cells (with early-acting or early and late acting cytokines) was “significant increases”.
For `NC(=O)c1cccnc1` [nicotinamide], the “differentiation of stem cells ex vivo” value in the data set on stem cells is reported as “represses the process of differentiation of stem cells”.
